Molecular target: T1, SIRT1 (Homo sapiens, UniProt Q96EB6)
T1 sequence (Q96EB6 1-747): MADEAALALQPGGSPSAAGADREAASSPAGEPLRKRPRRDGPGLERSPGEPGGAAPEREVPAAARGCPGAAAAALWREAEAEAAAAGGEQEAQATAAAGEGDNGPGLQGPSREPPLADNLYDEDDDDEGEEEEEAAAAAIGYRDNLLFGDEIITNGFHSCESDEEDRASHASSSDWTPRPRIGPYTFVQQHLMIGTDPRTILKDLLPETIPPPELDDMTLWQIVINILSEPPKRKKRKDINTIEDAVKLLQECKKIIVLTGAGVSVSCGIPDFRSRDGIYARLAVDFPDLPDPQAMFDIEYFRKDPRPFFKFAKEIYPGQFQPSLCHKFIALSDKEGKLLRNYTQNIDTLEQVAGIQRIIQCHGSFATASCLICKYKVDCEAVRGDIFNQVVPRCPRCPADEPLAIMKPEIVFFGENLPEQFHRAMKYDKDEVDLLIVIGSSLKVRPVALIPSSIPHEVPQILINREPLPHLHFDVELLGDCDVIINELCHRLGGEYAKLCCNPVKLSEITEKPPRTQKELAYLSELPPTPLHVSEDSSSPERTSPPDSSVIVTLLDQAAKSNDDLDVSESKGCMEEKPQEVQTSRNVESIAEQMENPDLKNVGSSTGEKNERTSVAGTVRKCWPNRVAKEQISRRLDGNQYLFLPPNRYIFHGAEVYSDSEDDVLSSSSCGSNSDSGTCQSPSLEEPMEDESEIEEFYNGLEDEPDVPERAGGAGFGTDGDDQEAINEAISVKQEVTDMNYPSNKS
Experiment: Trp mass spectrometry assay of SIRT1 activity (EC1.5, percent maximum activation)
Format: biochemical
Settings: Trp mass spectrometry assay; for TRP Activity (EC1.5): EC1.5 = concentration giving 150% activation of SIRT1
Method in brief: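 N-terminal His-tagged human SIRT1 from E. coli BL21(DE3) was incubated 25 min with a 5TMR-labelled, p53-derived Trp peptide and NAD plus varying compound concentrations, then quenched with formic acid. Mass spectrometry quantified OAADPR or deacetylated peptide versus compound-free control, giving EC1.5 and percent maximum activation.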

[1] = percent maximum activation of SIRT1
[2] = 0.5 μM peptide substrate, 120 μM βNAD+, 10 nM SIRT1, 25 minutes at 25° C.

SMILES | TRP Activity (EC1.5) | TRP MAX RESP (percent maximum fold activation) [1] | TRP MAX RESP (percent maximum fold activation) [2] | TRP Activity (EC1.5, concentration of test compound that results in 150% activation of SIRT1) [2]
Cc1cc(-c2nc3c(cc2Cl)N2CC[C@@H](C2)N3C(=O)Nc2ccnc(OC[C@H](O)CO)n2)ccn1 [Example 96, (4S)-8-chloro-N-(2-((R)-2,3-dihydroxypropoxy)pyrimidin-4-yl)-7-(2-methylpyridin-4-yl)-3,4-dihydro-1,4-methanopyrido[2,3-b][1,4]diazepine-5(2H)-carboxamide] | C (EC1.5>25 μM) | B (Fold Activation <150%) | – | –
COc1ncc(-c2nc3c(cc2Cl)N2CC[C@@H](C2)N3C(=O)Nc2ccnc(OC[C@@H](O)CO)c2)cc1C(F)(F)F [Example 99, (4S)-8-chloro-N-(2-((S)-2,3-dihydroxypropoxy)pyridin-4-yl)-7-(6-methoxy-5-(trifluoromethyl)pyridin-3-yl)-3,4-dihydro-1,4-methanopyrido[2,3-b][1,4]diazepine-5(2H)-carboxamide] | B (EC1.5 1-25 μM) | A (Fold activation ≧150%) | – | –
C[C@H]1CN(c2ccc3c(n2)N(C(=O)Nc2cnccn2)[C@H]2CCN3C2)CCO1 [Example 125, (4S)-7-((S)-2-methylmorpholino)-N-(pyrazin-2-yl)-3,4-dihydro-1,4-methano pyrido[2,3-b][1,4]diazepine-5(2H)-carboxamide] | – | A (Fold activation ≧150%) | – | –
Cc1ccc(-c2nc3c(cc2F)N2CC[C@@H](C2)N3C(=O)Nc2ccccn2)cn1 [Example 5, (4S)-8-fluoro-7-(6-methylpyridin-3-yl)-N-(pyridin-2-yl)-3,4-dihydro-1,4-methanopyrido[2,3-b][1,4]diazepine-5(2H)-carboxamide] | B (EC1.5 1-25 μM) | A (Fold activation ≧150%) | – | –
Cc1cc(-c2nc3c(cc2Cl)N2CC[C@@H](C2)N3C(=O)Nc2cncc(OC[C@@H](O)CO)n2)ccn1 [Example 98, (4S)-8-chloro-N-(6-((S)-2,3-dihydroxypropoxy)pyrazin-2-yl)-7-(2-methylpyridin-4-yl)-3,4-dihydro-1,4-methanopyrido[2,3-b][1,4]diazepine-5(2H)-carboxamide] | C (EC1.5>25 μM) | B (Fold Activation <150%) | – | –
Cc1ncc(-c2ccc3c(n2)N(C(=O)Nc2cnccn2)[C@H]2CCN3C2)o1 [Example 162, (4S)-7-(2-methyloxazol-5-yl)-N-(pyrazin-2-yl)-3,4-dihydro-1,4-methanopyrido[2,3-b][1,4]diazepine-5(2H)-carboxamide] | B (EC1.5 1-25 μM) | A (Fold activation ≧150%) | – | –
CN(C)c1cc(-c2ccc3c(n2)N(C(=O)Nc2cnccn2)[C@H]2CCN3C2)ccn1 [Example 179, (4S)-7-(2-(dimethylamino)pyridin-4-yl)-N-(pyrazin-2-yl)-3,4-dihydro-1,4-methanopyrido[2,3-b][1,4]diazepine-5(2H)-carboxamide] | B (EC1.5 1-25 μM) | A (Fold activation ≧150%) | – | –
Cc1cc(-c2ccc3c(n2)N(C(=O)Nc2cc(-c4c(C)nn(C)c4C)ccn2)[C@H]2CCN3C2)ccn1 [Example 365] | – | – | A (Fold activation ≧150%) | –
CC(C)(CO)COc1cccc(NC(=O)N2c3nc(-c4cccc(C(F)(F)F)c4)c(Cl)cc3N3CC[C@H]2C3)n1 [Example 49, (4S)-8-chloro-N-(6-(3-hydroxy-2,2-dimethylpropoxy)pyridin-2-yl)-7-(3-(trifluoromethyl)phenyl)-3,4-dihydro-1,4-methanopyrido[2,3-b][1,4]diazepine-5(2H)-carboxamide] | B (EC1.5 1-25 μM) | A (Fold activation ≧150%) | – | –
Cc1cc(-c2nc3c(cc2Cl)N2CC[C@@H](C2)N3C(=O)Nc2ccnc(O[C@H]3CCOC3)n2)ccn1 [Example 20, (4S)-8-chloro-7-(2-methylpyridin-4-yl)-N-(2-(((S)-tetrahydrofuran-3-yl)oxy)pyrimidin-4-yl)-3,4-dihydro-1,4-methanopyrido[2,3-b][1,4]diazepine-5(2H)-carboxamide] | C (EC1.5>25 μM) | A (Fold activation ≧150%) | – | –
Cl.O=C(Nc1ccnc(OC[C@H](O)CO)n1)N1c2nc(-c3cccc(C(F)(F)F)c3)c(Cl)cc2N2CC[C@H]1C2 [Example 51, (4S)-8-chloro-N-(2-((R)-2,3-dihydroxypropoxy)pyrimidin-4-yl)-7-(3-(trifluoromethyl)phenyl)-3,4-dihydro-1,4-methanopyrido[2,3-b][1,4]diazepine-5(2H)-carboxamide Hydrochloride] | A (EC1.5<1 μM) | A (Fold activation ≧150%) | – | –
O=C(Nc1cncc(OCCCO)n1)N1c2nc(-c3cccc(C(F)(F)F)c3)c(Cl)cc2N2CC[C@H]1C2 [Example 73, (4S)-8-chloro-N-(6-(3-hydroxypropoxy)pyrazin-2-yl)-7-(3-(trifluoromethyl)phenyl)-3,4-dihydro-1,4-methanopyrido[2,3-b][1,4]diazepine-5(2H)-carboxamide] | A (EC1.5<1 μM) | A (Fold activation ≧150%) | – | –
Cc1cc(-c2ccc3c(n2)N(C(=O)Nc2ccc4c(c2)OCCCO4)[C@H]2CCN3C2)ccn1 [Example 126, (4S)-N-(3,4-dihydro-2H-benzo[b][1,4]dioxepin-7-yl)-7-(2-methylpyridin-4-yl)-3,4-dihydro-1,4-methanopyrido[2,3-b][1,4]diazepine-5(2H)-carboxamide] | A (EC1.5<1 μM) | A (Fold activation ≧150%) | – | –
Cc1cc(-c2ccc3c(n2)N(C(=O)Nc2cnccn2)[C@H]2CCN3C2)cc(C)n1 [Example 135, (4S)-7-(2,6-dimethylpyridin-4-yl)-N-(pyrazin-2-yl)-3,4-dihydro-1,4-methanopyrido[2,3-b][1,4]diazepine-5(2H)-carboxamide] | – | A (Fold activation ≧150%) | – | –
Cc1cc(-c2ccc3c(n2)N(C(=O)Nc2cn(C)nn2)[C@H]2CCN3C2)ccn1 [Example 138, (4S)-N-(1-methyl-1H-1,2,3-triazol-4-yl)-7-(2-methylpyridin-4-yl)-3,4-dihydro-1,4-methanopyrido[2,3-b][1,4]diazepine-5(2H)-carboxamide] | B (EC1.5 1-25 μM) | A (Fold activation ≧150%) | – | –
Cc1cc(-c2nc3c(cc2Cl)N2CC[C@@H](C2)N3C(=O)Nc2cccnc2)ccn1 [Example 210, (9S)-4-chloro-5-(2-methylpyridin-4-yl)-N-(pyridin-3-yl)-1,6,8-triazatricyclo[7.2.1.0{2,7}]dodeca-2,4,6-triene-8-carboxamide] | – | – | A (Fold activation ≧150%) | B (EC1.5 1-25 μM)
Nc1ccc(-c2ccc3c(n2)N(C(=O)Nc2ccccn2)[C@H]2CCN3C2)cn1 [Example 299] | – | – | A (Fold activation ≧150%) | –
Cc1cc(-c2ccc3c(n2)N(C(=O)Nc2nccc(-c4cnc(C)o4)n2)[C@H]2CCN3C2)ccn1 [Example 353] | – | – | A (Fold activation ≧150%) | –

— patent US20170355705A1 (GlaxoSmithKline Intellectual Property (No.2) Limited, priority 2014, published 2017)
